In PubChem BioAssay AID248 (DTP/NCI, 2004):
Where “and” joins values, the source holds several entries; their conditions need not be identical. Identical values can stand only once. Toxic doses and inconclusive results are not listed. Cut-off read from the data, not from the text of the source: active = T/C of 150% or more; inactive = T/C below 125%.

System: L1210 leukemia ip in BDF1 mice, survival T/C
Experiment: NCI In Vivo Anticancer Drug Screen. Data for tumor model L1210 Leukemia (intraperitoneal) in B6D2F1 (BDF1) mice
Conditions: endpoint: mean survival time, higher = longer survival
Procedure, shortened: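 Tumor was transplanted into mice, which were then dosed with test compound or vehicle alone. Survival was recorded for each group, and the treated figure was expressed relative to the control figure.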

[1] = dose: 100.0 mg/kg/injection, schedule: Q01DX001 (ip), vehicle: Klucel (hydroxypropylcellulose) (HPC)
[2] = dose: 100.0 mg/kg/injection, schedule: Q01DX001 (ip), vehicle: saline with Tween-80
[3] = dose: 200.0 mg/kg/injection, schedule: Q01DX001 (ip), vehicle: Klucel (hydroxypropylcellulose) (HPC)
[4] = dose: 200.0 mg/kg/injection, schedule: Q01DX001 (ip), vehicle: saline with Tween-80
[5] = dose: 400.0 mg/kg/injection, schedule: Q01DX001 (ip), vehicle: saline with Tween-80
[6] = dose: 50.0 mg/kg/injection, schedule: Q01DX009 (ip), vehicle: saline
[7] = dose: 100.0 mg/kg/injection, schedule: Q01DX009 (ip), vehicle: saline
[8] = dose: 100.0 mg/kg/injection, schedule: Q04DX003 (ip), vehicle: saline
[9] = dose: 200.0 mg/kg/injection, schedule: Q01DX009 (ip), vehicle: saline
[10] = dose: 200.0 mg/kg/injection, schedule: Q04DX003 (ip), vehicle: saline
[11] = dose: 100.0 mg/kg/injection, schedule: Q01DX001 (ip), vehicle: saline
[12] = dose: 200.0 mg/kg/injection, schedule: Q01DX001 (ip), vehicle: saline
[13] = dose: 400.0 mg/kg/injection, schedule: Q01DX001 (ip), vehicle: saline
[14] = dose: 100.0 mg/kg/injection, schedule: Q04DX003 (ip), vehicle: saline with Tween-80
[15] = dose: 200.0 mg/kg/injection, schedule: Q04DX003 (ip), vehicle: saline with Tween-80
[16] = dose: 400.0 mg/kg/injection, schedule: Q04DX003 (ip), vehicle: saline with Tween-80
[17] = dose: 100.0 mg/kg/injection, schedule: Q01DX009 (ip), vehicle: Klucel (hydroxypropylcellulose) (HPC)
[18] = dose: 200.0 mg/kg/injection, schedule: Q01DX009 (ip), vehicle: Klucel (hydroxypropylcellulose) (HPC)
[19] = dose: 100.0 mg/kg/injection, schedule: Q04DX002 (ip), vehicle: Klucel (hydroxypropylcellulose) (HPC)
[20] = dose: 200.0 mg/kg/injection, schedule: Q04DX002 (ip), vehicle: Klucel (hydroxypropylcellulose) (HPC)
[21] = dose: 400.0 mg/kg/injection, schedule: Q04DX003 (ip), vehicle: saline

Measured: T/C

COC1OC2COC(c3ccccc3)OC2C(O)C1NC(C)=O (stereo not drawn)
inactive: [1] 95 % of control | [2] 101 % of control | [3] 104 % of control | [4] 97 % of control | [5] 98 % of control

Cn1cc(C=O)c2nccnc21
inactive: [6] 98 % of control | [7] 95 % of control | [8] 100 % of control | [9] 98 % of control | [10] 100 % of control

C/C=C(\C)C(N)=Nc1ccc(Cl)c(Cl)c1
inactive: dose: 55.0 mg/kg/injection, schedule: Q01DX Z (ip), vehicle: methylcellulose (MC) 106 % of control | dose: 83.0 mg/kg/injection, schedule: Q01DX Z (ip), vehicle: methylcellulose (MC) 102 % of control | dose: 125.0 mg/kg/injection, schedule: Q01DX Z (ip), vehicle: methylcellulose (MC) 102 % of control

NC(=O)C(Cc1cnc[nH]1)NC(=O)OCc1ccccc1 (stereo not drawn)
inactive: dose: 100.0 mg/kg/injection, schedule: Q01DX009 (ip), vehicle: saline with Tween-80 91 % of control | dose: 200.0 mg/kg/injection, schedule: Q01DX009 (ip), vehicle: saline with Tween-80 96 % of control | dose: 400.0 mg/kg/injection, schedule: Q01DX009 (ip), vehicle: saline with Tween-80 105 % of control

Cc1cccn2c(=O)cc(O)nc12
inactive: dose: 50.0 mg/kg/injection, schedule: Q01DX001 (ip), vehicle: saline 112 % of control | [11] 110 % of control | [12] 116 % of control | [13] 103 % of control

CCCCCCCCCCCCCCCCCOc1ccc(Sc2ccc([N+](=O)[O-])cc2)cc1
inactive: dose: 200.0 mg/kg/injection, schedule: Q04DX003 (ip), vehicle: Klucel (hydroxypropylcellulose) (HPC) 92 % of control

COC(=O)CCC(C)C1CCC2C3CCC4CC(OC(=O)c5ccccc5)CCC4(C)C3CC(=O)C12C (stereo not drawn)
inactive: dose: 100.0 mg/kg/injection, schedule: Q01DX001 (sc), vehicle: steriod suspending solution 102 % of control | dose: 100.0 mg/kg/injection, schedule: Q01DX009 (sc), vehicle: steriod suspending solution 93 % of control | dose: 200.0 mg/kg/injection, schedule: Q01DX001 (sc), vehicle: steriod suspending solution 106 % of control | dose: 200.0 mg/kg/injection, schedule: Q01DX009 (sc), vehicle: steriod suspending solution 98 % of control | dose: 400.0 mg/kg/injection, schedule: Q01DX001 (sc), vehicle: steriod suspending solution 104 % of control | dose: 400.0 mg/kg/injection, schedule: Q01DX009 (sc), vehicle: steriod suspending solution 99 % of control

C[N+](C)(Cc1ccc(Cl)cc1)C1c2ccccc2-c2ccccc21
inactive: dose: 6.0 mg/kg/injection, schedule: Q04DX003 (ip), vehicle: saline 93 % of control | dose: 12.0 mg/kg/injection, schedule: Q04DX003 (ip), vehicle: saline 102 % of control | dose: 12.5 mg/kg/injection, schedule: Q01DX009 (ip), vehicle: saline 106 % of control | dose: 25.0 mg/kg/injection, schedule: Q01DX009 (ip), vehicle: saline 101 % of control | dose: 25.0 mg/kg/injection, schedule: Q04DX003 (ip), vehicle: saline 94 % of control and 91 % of control | [6] 98 % of control | dose: 50.0 mg/kg/injection, schedule: Q04DX003 (ip), vehicle: saline 87 % of control

N#Cc1ccc(Oc2ccc(C#N)cc2)cc1
inactive: [14] 100 % of control | [15] 97 % of control | [16] 101 % of control

CCOC(=O)c1c(C)c(-c2ccccc2F)nc2ccccc12
inactive: [11] 103 % of control | [12] 94 % of control

O=C1C=C(N2CCOCC2)c2cccc3cccc1c23
inactive: dose: 50.0 mg/kg/injection, schedule: Q01DX001 (ip), vehicle: Klucel (hydroxypropylcellulose) (HPC) 106 % of control | [1] 104 % of control | [17] 94 % of control | [3] 98 % of control | [18] 96 % of control

COc1c2ccccc2nc2ccccc12
inactive: [14] 93 % of control | [15] 91 % of control | [16] 95 % of control

O=C1OCC/C1=C\OCCCO/C=C1\CCOC1=O
inactive: [19] 100 % of control | [20] 87 % of control | dose: 400.0 mg/kg/injection, schedule: Q04DX002 (ip), vehicle: Klucel (hydroxypropylcellulose) (HPC) 97 % of control

Cc1cccc([N+](=O)[O-])c1N
inactive: dose: 50.0 mg/kg/injection, schedule: Q01DX001 (ip), vehicle: carboxymethylcellulose (CMC) 109 % of control | dose: 100.0 mg/kg/injection, schedule: Q01DX001 (ip), vehicle: carboxymethylcellulose (CMC) 109 % of control | dose: 200.0 mg/kg/injection, schedule: Q01DX001 (ip), vehicle: carboxymethylcellulose (CMC) 113 % of control | dose: 400.0 mg/kg/injection, schedule: Q01DX001 (ip), vehicle: carboxymethylcellulose (CMC) 115 % of control

COc1cc2c(cc1OC)CC(=O)NC2
inactive: [8] 95 % of control | [10] 97 % of control | [21] 97 % of control

NCCCN1CCN(CCCN)CC1
inactive: [11] 98 % of control | [7] 94 % of control and 103 % of control | [8] 97 % of control | [12] 90 % of control | [9] 94 % of control and 97 % of control | [10] 96 % of control | [13] 95 % of control | dose: 400.0 mg/kg/injection, schedule: Q01DX009 (ip), vehicle: saline 100 % of control and 88 % of control | [21] 92 % of control

Cc1ccc(NC(=O)C(Cl)Cl)cc1Cl
inactive: dose: 50.0 mg/kg/injection, schedule: Q01DX009 (ip), vehicle: Klucel (hydroxypropylcellulose) (HPC) 103 % of control | [17] 107 % of control | [18] 98 % of control

Cc1ccc(NC(=O)c2ccccc2)cc1
inactive: [19] 95 % of control | [20] 95 % of control

CC1=CC(C)(C)Nc2ccc(Nc3ccccc3)cc21
inactive: dose: 75.0 mg/kg/injection, schedule: Q01DX001 (ip), vehicle: saline 101 % of control | dose: 150.0 mg/kg/injection, schedule: Q01DX001 (ip), vehicle: saline 96 % of control

c1ccc(CN2C3CCCC2CC(c2ccccc2)C3)cc1 (stereo not drawn)
inactive: [19] 92 % of control | [20] 87 % of control

N#CC(/C=C/c1ccccc1)Nc1ccccc1N (stereo not drawn)
inactive: [2] 91 % of control | [4] 94 % of control | [5] 86 % of control
